Assays:
[1] = test system: NCI-H1155 Tumor Xenografts; assay: LC-MS Analysis of NAD+ in NCI-H1155 Tumor Xenografts; type: in vivo, mice; details: oral gavage
Experimental: The purpose of this assay is to measure effects of NAMPT inhibitors on NAD^+ formation in cancer cells. LC-MS analysis of NAD^+ metabolites: nicotinamide mononucleotide (NMN), NAD^+, reduced nicotinamide adenine dinucleotide (NADH), and nicotinamide adenine dinucleotide phosphate (NADP) is performed on an HPLC system coupled to a Thermo Quantum Ultra triple quadrupole mass spectrometer operated in positive heated electrospray mode with selected reaction monitoring detection. For cell extracts, 50 μL of extract and 10 μL of 10 μM internal standard (IS) solution is transferred to a 96-well plate, dried under nitrogen and reconstituted in 50 μL of water. For tissue extracts, 20 μL of extract and 10 μL of IS solution are dried and reconstituted in 50 μL water. The IS solution contains 10 μM nicotinamide-d4 (C/D/N Isotopes), nicotinic acid-d4 (C/D/N Isotopes), nicotinamide mononucleotide-d4 (prepared by custom synthesis) and nicotinamide 1,N^6-ethenoadenine dinucleotide in methanol. The metabolites are separated on a Waters XBRIDGE™ Amide (2.1×50 mm, 3 μm) with an injection volume of 10 μL and a flow rate of 1 mL/minute using 10 mM ammonium acetate in 95% acetonitrile for mobile phase A and 10 mM ammonium acetate in 50% acetonitrile for mobile phase B. The gradient is as follows: 0 minutes, 0% B; 2.5 minutes, 70% B; 2.51 minutes, 100% B; 2.8 minutes, 100% B; 2.81 minutes, 0% B, 3.6 minutes, 0% B.
The purpose of this assay is to measure the effects of NAMPT inhibitors on NAD^+ levels in vivo as described above. Tumors are grown and treated as described below for efficacy in xenograft tumor models below (7 animals/group). Each compound is also formulated as described for efficacy in xenograft tumor models below. Vehicle is 20% of CAPTISOL® and 25 mM of phosphate buffer, pH 2 without compound. After the completion of the treatment, tumor tissues (˜50 mg each) are homogenized in an ice cold extraction buffer (1 mL of 70% methanol/water; HPLC grade for 2 minutes in a tissue lyser II (QIAGEN™) at frequency 30 Hz. The resulting preparations are centrifuged at 14000×g for 6 minutes. The supernatant fractions (500 μL each) are collected and extracted with chloroform (0.5 mL). The aqueous fractions (0.3 mL each) are collected into a 96-well plate ready for LC-MS analysis. The LC-MS analysis of NAD metabolites is performed as described above.
The purpose of this assay is to measure reduction in tumor volume in response to test compound administration. A2780 and NCI-H1155 (NSCLC) cells are grown as described above for IVTI studies. Cells are harvested and injected subcutaneously onto the rear flank of nude mice. When tumors are established (7-21 days after implant), animals are randomized and grouped into control and test groups (7 animals/group). The test compound is formulated in 20% of CAPTISOL® and 25 mM of phosphate buffer, pH 2. Test compound and vehicle (20% of CAPTISOL® and 25 mM of phosphate buffer, pH 2 without compound) are administered by oral gavage. Tumor response is determined by tumor volume measurement (caliper) performed twice a week during the course of treatment and reported as percent of tumor volume of each treatment group divided by tumor volume of the vehicle control group. […]

[2] = test system: NCI-H1155 (lung cancer) cells; assay: Cell Viability Assay, NCI-H1155; type: cell-based; details: Homo sapiens, 72 hours
Experimental: The purpose of this assay is to measure the ability of a compound to reduce viability of different cancer cells dependent on the NAMPT-mediated NAD^+ formation in vitro. HCC1937 (breast cancer) cells are cultured in RPMI-1640 supplemented with 10% FBS. Calu-6 (lung cancer) cells and MCF-7 (breast cancer) cells are cultured in Minimum Essential Medium (MEM) (Gibco11095) supplemented with 1 mM sodium pyruvate (Gibco 11360), 1% Non-Essential Amino Acids Solution (100×; Gibco 11140) and 10% FBS. NCI-H1155 (lung cancer) cells are cultured in Dulbecco's Modified Eagle Medium (DMEM) (Gibco 11965) with 10% FBS. […] Cell viability is analyzed by using an assay kit (CYTOTOX-GLO™ Cytotoxicity Assay kit, Promega) according to the manufacturer's instructions as follows. […] Luminescence is measured using a Wallac Victor3 V 1420 Multilabel Counter (Perkin Elmer), referred to as dead cell luminescence. […] After the plate is incubated at room temperature for 15 minutes, luminescence is measured using the plate reader, referred to as total luminescence. Viable cell luminescence (CPS) is calculated by subtracting the dead cell luminescence from the total luminescence Inhibition of cell viability is calculated based on the equation as follows:
Inhibition (%)=(CPSnegative−CPSsample)/(CPSnegative−CPSpositive)*100 where CPS is the luminescence of viable cells.

IC50 [2] [nM] | SMILES | NAD levels (pmol/mg tissue) ([1]; 8 mg/kg (BID)) | NAD levels (pmol/mg tissue) ([1]; 16 mg/kg (BID)) | NAD levels (pmol/mg tissue) ([1]; 32 mg/kg (BID)) | NAD levels (pmol/mg tissue) ([1]; 2.5 mg/kg (BID)) | NAD levels (pmol/mg tissue) ([1]; 5 mg/kg (BID)) | NAD levels (pmol/mg tissue) ([1]; 10 mg/kg (BID)) | NAD levels (pmol/mg tissue) ([1]; 20 mg/kg (BID))
37 ± 16 | COCCS(=O)(=O)Nc1ccc2c(c1)CCN(C(=O)COc1cccnc1)C2 [Example 2, 2-Methoxy-N-[2-[2-(3-pyridyloxy)acetyl]-3,4-dihydro-1H-isoquinolin-6-yl]ethanesulfonamide] | 5.19 | 1.98 | 0.84 |  |  |  | 
18 ± 3 | CC(C)(O)CS(=O)(=O)Nc1ccc2c(c1)CCN(C(=O)COc1cccnc1)C2 [Example 1, 2-Hydroxy-2-methyl-N-[2-[2-(3-pyridyloxy)acetyl]-3,4-dihydro-1H-isoquinolin-6-yl]propane-1-sulfonamide] |  |  |  | 11.38 | 7.48 | 3.63 | 1.82
